In patent publication US20170354655A1, “TLR INHIBITOR AND BRUTON'S TYROSINE KINASE INHIBITOR COMBINATIONS” (Pharmacyclics LLC, priority 2014, published 2017):

Key:
TMD8 cells = experiment: Combined drug treatment with 5Z-7-Oxozeaenol and ibrutinib, CellTiter-Glo cell viability in TMD8 cell line; assay type: cell-based
Procedure: A 40 μL aliquot of CellTiter-Glo® reagent was added directly into each well of the 96-W plate. The plate was then shaken on a Shaker (Labsystem Wellmix) at speed 5 for 10-20 min at room temperature. Next, about 100 μL of the mixed medium was transferred to a white, non-transparent, flat bottom 96-W plate for assaying. A Flexstation 3 luminometer was used for detecting and measuring the luminescent signals. Measurements were taken at room temperature.
The luminescent measurements were subsequently processed and analyzed using CalcuSyn (CI) and Chalice Analyzer (synergy score). CalcuSyn performs the multiple drug dose-effect calculations using the Median Effect methods described by T-C Chou and P. Talalay in “Analysis of combined drug effects: a new look at a very old problem,” Trends Pharmacol. Sci. 4:450-454 (1983). In general, the resulting combination index (CI) obtained from the Chou-Talalay method defines quantitatively for additive effect (CI=1), synergism (CI<1), and antagonism (CI>1) in drug combinations. Chalice Analyzer utilizes the method described in Lehar et al. “Synergistic drug combinations improve therapeutic selectivity,” Nat. Biotechnol. 27(7):659-666 (2009). Synergy scores is higher than 1 indicate synergy between two compounds, with higher synergy scores indicating better synergy.
200 μl of TMD8 wt cells (1.0×10^4 cells) at 5.0×10^4 cells/ml was plated into each well of a 96-well plate. The cells were grown in RPMI-10P medium.
The TAK1 inhibitor used for this experiment was 5Z-7-oxozeaenol. […] The stock solution for chloroquine diphosphate was prepared at 20 mM concentration. The CellTiter-Glo® assay follow the protocols of Example 1.

[1] = test system: patients who have the activated B-cell like (ABC) subtype of DLBCL; details: cited from earlier work

COc1cc(O)c2c(c1)/C=C/C[C@H](O)[C@H](O)C(=O)/C=C\C[C@H](C)OC2=O [5Z-7-Oxozeaenol, 5Z-7-oxozeaenol]
luminescent signal (CellTiter-Glo) (TMD8 cells; 5Z-7-OXO 1 nM, ibrutinib 0 nM): 259932 | luminescent signal (CellTiter-Glo) (TMD8 cells; 5Z-7-OXO 1 nM, ibrutinib 0.00026 nM): 249856 | luminescent signal (CellTiter-Glo) (TMD8 cells; 5Z-7-OXO 1 nM, ibrutinib 0.00128 nM): 259290 | luminescent signal (CellTiter-Glo) (TMD8 cells; 5Z-7-OXO 1 nM, ibrutinib 0.0064 nM): 236187 | luminescent signal (CellTiter-Glo) (TMD8 cells; 5Z-7-OXO 1 nM, ibrutinib 0.032 nM): 249545 | luminescent signal (CellTiter-Glo) (TMD8 cells; 5Z-7-OXO 1 nM, ibrutinib 0.16 nM): 181569 | luminescent signal (CellTiter-Glo) (TMD8 cells; 5Z-7-OXO 1 nM, ibrutinib 0.8 nM): 127363 | luminescent signal (CellTiter-Glo) (TMD8 cells; 5Z-7-OXO 1 nM, ibrutinib 4 nM): 98378.9 | luminescent signal (CellTiter-Glo) (TMD8 cells; 5Z-7-OXO 1 nM, ibrutinib 20 nM): 98536.7 | luminescent signal (CellTiter-Glo) (TMD8 cells; 5Z-7-OXO 1 nM, ibrutinib 100 nM): 78834.1 | luminescent signal (CellTiter-Glo) (TMD8 cells; 5Z-7-OXO 10 nM, ibrutinib 0 nM): 277804 | luminescent signal (CellTiter-Glo) (TMD8 cells; 5Z-7-OXO 10 nM, ibrutinib 0.00026 nM): 260616 | luminescent signal (CellTiter-Glo) (TMD8 cells; 5Z-7-OXO 10 nM, ibrutinib 0.00128 nM): 241442 | luminescent signal (CellTiter-Glo) (TMD8 cells; 5Z-7-OXO 10 nM, ibrutinib 0.0064 nM): 223023 | luminescent signal (CellTiter-Glo) (TMD8 cells; 5Z-7-OXO 10 nM, ibrutinib 0.032 nM): 222768 | luminescent signal (CellTiter-Glo) (TMD8 cells; 5Z-7-OXO 10 nM, ibrutinib 0.16 nM): 175048 | luminescent signal (CellTiter-Glo) (TMD8 cells; 5Z-7-OXO 10 nM, ibrutinib 0.8 nM): 120925 | luminescent signal (CellTiter-Glo) (TMD8 cells; 5Z-7-OXO 10 nM, ibrutinib 4 nM): 96219.6 | luminescent signal (CellTiter-Glo) (TMD8 cells; 5Z-7-OXO 10 nM, ibrutinib 20 nM): 86196 | luminescent signal (CellTiter-Glo) (TMD8 cells; 5Z-7-OXO 10 nM, ibrutinib 100 nM): 86511.6 | luminescent signal (CellTiter-Glo) (TMD8 cells; 5Z-7-OXO 100 nM, ibrutinib 0 nM): 167090 | luminescent signal (CellTiter-Glo) (TMD8 cells; 5Z-7-OXO 100 nM, ibrutinib 0.00026 nM): 168173 | luminescent signal (CellTiter-Glo) (TMD8 cells; 5Z-7-OXO 100 nM, ibrutinib 0.00128 nM): 147600 | luminescent signal (CellTiter-Glo) (TMD8 cells; 5Z-7-OXO 100 nM, ibrutinib 0.0064 nM): 151829 | luminescent signal (CellTiter-Glo) (TMD8 cells; 5Z-7-OXO 100 nM, ibrutinib 0.032 nM): 130054 | luminescent signal (CellTiter-Glo) (TMD8 cells; 5Z-7-OXO 100 nM, ibrutinib 0.16 nM): 98728.8 | luminescent signal (CellTiter-Glo) (TMD8 cells; 5Z-7-OXO 100 nM, ibrutinib 0.8 nM): 54512.9 | luminescent signal (CellTiter-Glo) (TMD8 cells; 5Z-7-OXO 100 nM, ibrutinib 4 nM): 42472 | luminescent signal (CellTiter-Glo) (TMD8 cells; 5Z-7-OXO 100 nM, ibrutinib 20 nM): 40678.2 | luminescent signal (CellTiter-Glo) (TMD8 cells; 5Z-7-OXO 100 nM, ibrutinib 100 nM): 34016 | luminescent signal (CellTiter-Glo) (TMD8 cells; 5Z-7-OXO 1000 nM, ibrutinib 0 nM): 27259.1 | luminescent signal (CellTiter-Glo) (TMD8 cells; 5Z-7-OXO 1000 nM, ibrutinib 0.00026 nM): 29868.2 | luminescent signal (CellTiter-Glo) (TMD8 cells; 5Z-7-OXO 1000 nM, ibrutinib 0.00128 nM): 25315.4 | luminescent signal (CellTiter-Glo) (TMD8 cells; 5Z-7-OXO 1000 nM, ibrutinib 0.0064 nM): 23976.6 | luminescent signal (CellTiter-Glo) (TMD8 cells; 5Z-7-OXO 1000 nM, ibrutinib 0.032 nM): 20081.4 | luminescent signal (CellTiter-Glo) (TMD8 cells; 5Z-7-OXO 1000 nM, ibrutinib 0.16 nM): 15015.6 | luminescent signal (CellTiter-Glo) (TMD8 cells; 5Z-7-OXO 1000 nM, ibrutinib 0.8 nM): 12627.5 | luminescent signal (CellTiter-Glo) (TMD8 cells; 5Z-7-OXO 1000 nM, ibrutinib 4 nM): 13032.5 | luminescent signal (CellTiter-Glo) (TMD8 cells; 5Z-7-OXO 1000 nM, ibrutinib 20 nM): 13048.3 | luminescent signal (CellTiter-Glo) (TMD8 cells; 5Z-7-OXO 1000 nM, ibrutinib 100 nM): 12982.5 | luminescent signal (CellTiter-Glo) (TMD8 cells; 5Z-7-OXO 10000 nM, ibrutinib 0 nM): 4563.35 | luminescent signal (CellTiter-Glo) (TMD8 cells; 5Z-7-OXO 10000 nM, ibrutinib 0.00026 nM): 4729.05 | luminescent signal (CellTiter-Glo) (TMD8 cells; 5Z-7-OXO 10000 nM, ibrutinib 0.00128 nM): 4731.68 | luminescent signal (CellTiter-Glo) (TMD8 cells; 5Z-7-OXO 10000 nM, ibrutinib 0.0064 nM): 4700.12 | luminescent signal (CellTiter-Glo) (TMD8 cells; 5Z-7-OXO 10000 nM, ibrutinib 0.032 nM): 5299.8 | luminescent signal (CellTiter-Glo) (TMD8 cells; 5Z-7-OXO 10000 nM, ibrutinib 0.16 nM): 5307.69 | luminescent signal (CellTiter-Glo) (TMD8 cells; 5Z-7-OXO 10000 nM, ibrutinib 0.8 nM): 5441.83 | luminescent signal (CellTiter-Glo) (TMD8 cells; 5Z-7-OXO 10000 nM, ibrutinib 4 nM): 5749.55 | luminescent signal (CellTiter-Glo) (TMD8 cells; 5Z-7-OXO 10000 nM, ibrutinib 20 nM): 5957.34 | luminescent signal (CellTiter-Glo) (TMD8 cells; 5Z-7-OXO 10000 nM, ibrutinib 100 nM): 6244.03 | CI value for the 5Z-7-Oxozeaenol/ibrutinib combination (TMD8 cells; TMD8 cells): 0.17 | synergy score for the 5Z-7-Oxozeaenol/ibrutinib combination (TMD8 cells; TMD8 cells): 4.63 | synergy with ibrutinib (in words) (TMD8 cells; TMD8 cells): Synergy was observed

C=CC(=O)N1CCC[C@@H](n2nc(-c3ccc(Oc4ccccc4)cc3)c3c(N)ncnc32)C1 [ibrutinib, 1-((R)-3-(4-amino-3-(4-phenoxyphenyl)-1H-pyrazolo[3,4-d]pyrimidin-1-yl)piperidin-1-yl)prop-2-en-1-one]
luminescent signal (CellTiter-Glo) (TMD8 cells; 5Z-7-OXO 0 nM, ibrutinib 0.00026 nM): 268264 | luminescent signal (CellTiter-Glo) (TMD8 cells; 5Z-7-OXO 0 nM, ibrutinib 0.00128 nM): 245879 | luminescent signal (CellTiter-Glo) (TMD8 cells; 5Z-7-OXO 0 nM, ibrutinib 0.0064 nM): 240905 | luminescent signal (CellTiter-Glo) (TMD8 cells; 5Z-7-OXO 0 nM, ibrutinib 0.032 nM): 249480 | luminescent signal (CellTiter-Glo) (TMD8 cells; 5Z-7-OXO 0 nM, ibrutinib 0.16 nM): 190532 | luminescent signal (CellTiter-Glo) (TMD8 cells; 5Z-7-OXO 0 nM, ibrutinib 0.8 nM): 126175 | luminescent signal (CellTiter-Glo) (TMD8 cells; 5Z-7-OXO 0 nM, ibrutinib 4 nM): 96203.8 | luminescent signal (CellTiter-Glo) (TMD8 cells; 5Z-7-OXO 0 nM, ibrutinib 20 nM): 90633.1 | luminescent signal (CellTiter-Glo) (TMD8 cells; 5Z-7-OXO 0 nM, ibrutinib 100 nM): 94612.5 | overall response rate [1]: 41% | overall survival [1]: 9.7 month
